Where “and” joins values, the source holds several entries; their conditions need not be identical. Equal values may be shown once. Read-outs that look alike come from different tables or passages of the source.
Assays:
Mice = details: cited from earlier work; for LD50: Mice
[1] = test system: diabetic (streptozotocin-treated) rats; experiment: Intravenous administration in diabetic rats, plasma glucose; assay type: in vivo; details: for % Initial plasma glucose conc. / Actual plasma glucose: iv 0.5 μ/kg
Method: (§1) The term "diabetic rat" in the following tests refers to rats having been treated with streptozoticin by intravenous injection at a dosage of 75 mg/kg at least 4 days prior to the experiments in question. All rats used in the experiments had been fasting 12-18 hours prior to the experiments. Blood samples were taken at appropriate intervals as disclosed in the tables from a vein cannula which was implanted in a jugular vein. During the experiments, rats were awake, were able to move freely and had access to water (but no food). Plasma glucose was measured on a Beckman Glucose Analyzer 2 employing the enzymatic reaction of β-D-glucose with oxygen and measuring oxygen consumption rather than hydrogen peroxide formation.
A. Intravenous (iv) Administration of Regular and Modified Insulin in Diabetic Rats
From 15 min to 45 min after iv administration, the induced hypoglycemic effect was more pronounced in regular-insulin-treated aminals.

[2] = test system: diabetic (streptozotocin-treated) rats; experiment: Oral administration in diabetic rats, plasma glucose; assay type: in vivo, rat; details: for Glucose / Glucose Level (% initial level): unmodified insulin oral 80 μ/kg
Method: as §1
B. Oral Administration of Regular and Modified Insulin (at 80μ/kg) in Normal and Diabetic Rats.
The three controls were regular insulin, a carrier complex of SDS:TEA, and a complex of albumin:SDS:TEA in the same weight ratio as than in the insulin complex; i.e., albumin:SDS:TEA=5:7.5:3.6.
The results of oral administrations of modified insulin and carrier complex (SDS:TEA=1:1 by mole) in the amount equivalent to that in the sandwich complex of insulin calculated based on 80μof insulin per kg of rat in normal rats are shown in Tables 3 and 4. The results of oral administrations of modified insulin, regular insulin, carrier complex and the sandwich complex of albumin (albumin:SDS:TEA in a weight ratio of 5:7.5:3.6) in diabetic rats are shown in Tables 5, 6, 7 and 8 respectively.

[3] = diabetic rats, 15 min, mean ± SD
[4] = diabetic rats, 15 min, single rats
[5] = diabetic rats, 30 min, mean ± SD
[6] = diabetic rats, 30 min, single rats
[7] = diabetic rats, 45 min, mean ± SD
[8] = diabetic rats, 45 min, single rats
[9] = diabetic rats, 60 min, mean ± SD
[10] = diabetic rats, 60 min, single rats
[11] = diabetic rats, 90 min, mean ± SD
[12] = diabetic rats, 90 min, single rats
[13] = diabetic rats, 120 min, mean ± SD
[14] = diabetic rats, 120 min, single rats
[15] = diabetic rats, 180 min, mean ± SD
[16] = diabetic rats, 180 min, single rats
[17] = diabetic rats, 300 min, mean ± SD
[18] = diabetic rats, 300 min, single rats

For `Cn1ccnc1` [1-methylimidazole], the LD50 (Mice; ipr.) is listed as 380 mg/kg, the “toxicity (in words)” value (Mice; mouse, in vivo) is listed as “very slight” and the LD50 (Mice; oral) is listed as 1500 mg/kg.
In the case of “Insulin: Insulin (bovine pancreas, crystalline; 25.5 μ/mg; Sigma)”, the “% Initial plasma glucose conc.” value [1, 3] is reported as 63.8%, the Actual plasma glucose [1, 3] is reported as 239 mg % and the “% Initial plasma glucose conc.” value [1, 4] is reported as 46.1% and 63.8% and 57.7% and 84.5% and 47.9% and 82.5%. For the same compound, the Actual plasma glucose [1, 4] was 197 mg % and 176 mg % and 214 mg % and 359 mg % and 113 mg % and 372 mg %, the “% Initial plasma glucose conc.” value [1, 5] was 50.0% and the Actual plasma glucose [1, 5] was 185 mg %. For the same compound, the “% Initial plasma glucose conc.” value [1, 6] was 43.9% and 53.6% and 16.2% and 69.7% and 36.9% and 79.4%, the Actual plasma glucose [1, 6] was 358 mg % and 159 mg % and 148 mg % and 60 mg % and 296 mg % and 87 mg % and the “% Initial plasma glucose conc.” value [1, 7] was 48.3%. For the same compound, the Actual plasma glucose [1, 7] was 169 mg %, the “% Initial plasma glucose conc.” value [1, 8] was 36.5% and 59.1% and 31.0% and 56.2% and 41.5% and 65.3% and the Actual plasma glucose [1, 8] was 296 mg % and 132 mg % and 163 mg % and 84 mg % and 239 mg % and 98 mg %. The “% Initial plasma glucose conc.” value [1, 9] was 49.2 ± 15.4%, the Actual plasma glucose [1, 9] was 176 ± 83 mg % and the “% Initial plasma glucose conc.” value [1, 10] was 38.4% and 57.6% and 27.2% and 51.8% and 48.3% and 71.6%. The Actual plasma glucose [1, 10] was 323 mg % and 139 mg % and 159 mg % and 101 mg % and 220 mg % and 114 mg %, the “% Initial plasma glucose conc.” value [1, 11] was 53.0 ± 9% and the Actual plasma glucose [1, 11] was 190 ± 69 mg %. The “% Initial plasma glucose conc.” value [1, 12] was 45.4% and 53.6% and 50.4% and 46.1% and 51.7% and 70.7%, the Actual plasma glucose [1, 12] was 319 mg % and 168 mg % and 148 mg % and 187 mg % and 196 mg % and 122 mg % and the “% Initial plasma glucose conc.” value [1, 13] was 50.1 ± 10.1%. The Actual plasma glucose [1, 13] was 177 ± 32 mg %, the “% Initial plasma glucose conc.” value [1, 14] was 42.3% and 58.0% and 56.9% and 35.1% and 60.6% and 47.8% and the Actual plasma glucose [1, 14] was 215 mg % and 153 mg % and 160 mg % and 211 mg % and 149 mg % and 143 mg %. For the same compound, the “% Initial plasma glucose conc.” value [1, 15] was 57.8%, the Actual plasma glucose [1, 15] was 196 mg % and the “% Initial plasma glucose conc.” value [1, 16] was 58.8% and 59.8% and 76.3% and 37.9% and 67.8% and 45.9%. The Actual plasma glucose [1, 16] was 207 mg % and 213 mg % and 165 mg % and 283 mg % and 161 mg % and 160 mg %, the “% Initial plasma glucose conc.” value [1, 17] was 65.7% and the Actual plasma glucose [1, 17] was 225 mg %. The “% Initial plasma glucose conc.” value [1, 18] was 60.8% and 58.1% and 89.2% and 46.6% and 90.7% and 48.6%, the Actual plasma glucose [1, 18] was 219 mg % and 220 mg % and 167 mg % and 331 mg % and 198 mg % and 214 mg % and the “hypoglycemic effect (in words), rat #285” value ([1]; iv administration, diabetic rat #285 treated with both agents) was “progressive hypoglycemic effect”. The “hypoglycemic effect (in words)” value ([1]; iv administration, diabetic rats) was “progressive, systemic, hypoglycemic effects for five hours in all animals”, the “systemic hypoglycemic effect (in words)” value ([2]; oral administration) was “does not result in a systemic, hypoglycemic effect” and the Glucose ([2]; 15 min, Mean ± Std. Dev.) was 273 ± 112 mg/100 ml. For the same compound, the “Glucose Level (% initial level)” value ([2]; 15 min, Mean ± Std. Dev.) was 134 ± 20%, the Glucose ([2]; 15 min, single rats) was 145 mg/100 ml and 371 mg/100 ml and 214 mg/100 ml and 363 mg/100 ml and the “Glucose Level (% initial level)” value ([2]; 15 min, single rats) was 119% and 155.2% and 146.6% and 115%. The Glucose ([2]; 30 min, Mean ± Std. Dev.) was 325 ± 28 mg/100 ml, the “Glucose Level (% initial level)” value ([2]; 30 min, Mean ± Std. Dev.) was 104.7 ± 19.8% and the Glucose ([2]; 30 min, single rats) was 293 mg/100 ml and 343 mg/100 ml and 340 mg/100 ml. For the same compound, the “Glucose Level (% initial level)” value ([2]; 30 min, single rats) was 122.6% and 107.9% and 83.5%, the Glucose ([2]; 45 min, Mean ± Std. Dev.) was 327 ± 82 mg/100 ml and the “Glucose Level (% initial level)” value ([2]; 45 min, Mean ± Std. Dev.) was 105.6 ± 31.2%. For the same compound, the Glucose ([2]; 45 min, single rats) was 270 mg/100 ml and 421 mg/100 ml and 290 mg/100 ml, the “Glucose Level (% initial level)” value ([2]; 45 min, single rats) was 113.0% and 132.4% and 71.3% and the Glucose ([2]; 60 min, Mean ± Std. Dev.) was 285 ± 87 mg/100 ml. The “Glucose Level (% initial level)” value ([2]; 60 min, Mean ± Std. Dev.) was 124.1 ± 57.9%, the Glucose ([2]; 60 min, single rats) was 152 mg/100 ml and 309 mg/100 ml and 272 mg/100 ml and 329 mg/100 ml and 410 mg/100 ml and 239 mg/100 ml and the “Glucose Level (% initial level)” value ([2]; 60 min, single rats) was 124.6% and 129.3% and 77.5% and 225.3% and 128.9% and 58.7%. The Glucose ([2]; 120 min, Mean ± Std. Dev.) was 270 ± 118 mg/100 ml, the “Glucose Level (% initial level)” value ([2]; 120 min, Mean ± Std. Dev.) was 121.4 ± 79.4% and the Glucose ([2]; 120 min, single rats) was 122 mg/100 ml and 288 mg/100 ml and 251 mg/100 ml and 392 mg/100 ml and 411 mg/100 ml and 157 mg/100 ml. For the same compound, the “Glucose Level (% initial level)” value ([2]; 120 min, single rats) was 100% and 120.5% and 71.5% and 268.5% and 129.2% and 38.6%, the Glucose ([2]; 180 min, Mean ± Std. Dev.) was 331 ± 127 mg/100 ml and the “Glucose Level (% initial level)” value ([2]; 180 min, Mean ± Std. Dev.) was 123.3 ± 76.1%. The Glucose ([2]; 180 min, single rats) was 296 mg/100 ml and 226 mg/100 ml and 502 mg/100 ml and 422 mg/100 ml and 211 mg/100 ml, the “Glucose Level (% initial level)” value ([2]; 180 min, single rats) was 123.9% and 64.5% and 243.8% and 132.7% and 51.8% and the Glucose ([2]; 300 min, Mean ± Std. Dev.) was 282 mg/100 ml. For the same compound, the “Glucose Level (% initial level)” value ([2]; 300 min, Mean ± Std. Dev.) was 116.1 ± 75.0%, the Glucose ([2]; 300 min, single rats) was 290 mg/100 ml and 189 mg/100 ml and 342 mg/100 ml and 391 mg/100 ml and 196 mg/100 ml and the “Glucose Level (% initial level)” value ([2]; 300 min, single rats) was 121.3% and 53.8% and 234.2% and 123.0% and 48.2%.
